Results as given in US20240245674A1, “DIAGNOSTIC METHODS AND COMPOSITIONS FOR TREATMENT OF CANCER” (LINNAEUS THERAPEUTICS, INC., priority 2021, published 2024).

Assays:
Type in all cases: in vivo, human
[1] = LNS8801 pharmacokinetics in patients with advanced cancer (plasma concentration by mass spectrometry)
Description: Patients with advanced cancer were dosed with 10, 40, and 125 mg of LNS8801 in a capsule on three consecutive days/week. Blood was collected from patients pre-dose and at 0.5, 1, 2, 4, 7, 10, and 24 hours after dosing. Samples were analyzed by mass spectrometry for the concentration of LNS8801. […] LNS8801 is well absorbed, producing plasma exposures that are predicted to be efficacious, even at the lowest dose evaluated. Half-life in humans is approximately 10 hours.

[2] = system: c-Myc positive tumor cells; test: c-Myc immunohistochemistry on pre- and on-treatment tumor biopsies; details: on-treatment biopsies 8-19 days after start vs pre-treatment; most samples
Text: Pre-treatment biopsies were collected within 28 days of initiating treatment, and on-treatment biopsies were collected 8-19 days after LNS8801 treatment began. Tumor samples were formalin-fixed, paraffin-embedded, sectioned, and assessed for c-Myc positive tumor cells by immunohistochemistry by a blinded pathologist.

[3] = system: prolactin (systemic marker of GPER activity); test: Prolactin induction in blood of patients after LNS8801 dosing, versus best RECIST response
Description: Blood was collected from patients pre-dose and at 0.5, 1, 2, 4, 7, and 10 hours after dosing and analyzed for the concentration of prolactin. Prolactin induction was calculated by dividing the average of the 4 hour through 10 hour timepoints by the average of pre-dose to 2 hour timepoints. Prolactin-induction was plotted with the best RECIST response of target lesions, and linear regression was performed.
Blood was collected from patients pre-dose and 0.5, 1, 2, 4, 7, and 10 hours after dosing and analyzed for the concentration of prolactin (PRLX). Prolactin induction was calculated by dividing the average of the 4 hour through 10 hour timepoints by the average of pre-dose to 2 hour timepoints.

Absorption / plasma exposure ([1]; 10, 40, 125 mg capsule): well absorbed
half-life ([1]; human, plasma, oral, humans, 10, 40, 125 mg capsule, three consecutive days/week): ~10 h
SMILES: CC(=O)c1ccc2c(c1)[C@@H]1C=CC[C@@H]1[C@H](c1cc3c(cc1Br)OCO3)N2 [LNS8801, 1-((3aS,4R,9bR)-4-(6-bromobenzo[d][1,3]dioxol-5-yl)-3a,4,5,9b-tetrahydro-3H-cyclopenta[c]quinolin-8-yl)ethan-1-one]
Change in c-Myc positive tumor cells after treatment [2]: dramatic depletion in c-Myc positive tumor cells
Patients lacking a prolactin response (<1.25-fold induction) ([3]; evaluable patients, every such patient had progressive disease): 35%
Change in prolactin levels on treatment ([3]; patients with progressive disease under RECIST): reduction or no change in prolactin levels
